Laboratory results reported in patent US10308642B2, “Anti-hepatitis B virus agent” (FUJIFILM Toyama Chemical Co., Ltd., priority 2015, dated 2019).
Read-outs that look alike come from different tables or passages of the source.

Assays:
HBV [1] = assay: Anti-HBV assay in HepG2.2.15 cells (HBV DNA by real-time PCR, HBsAg by chemiluminescent enzyme immunoassay in culture supernatant); assay type: cell-based; conditions: Hepatitis B virus, 144 h, 6 days treatment
Experimental: The anti-HBV activity of compounds 1 to 16 was evaluated as follows by using HepG2.2.15 cells (Proc. Natl. Acad. Sci. USA, 84, 1005-1009, 1987), which are obtained by introducing the HBV genome into hepatoblastoma cell line, HepG2, and persistently produce the virus.
The following was used as a medium: DMEM/F-12,GlutaMAX(manufactured by Invitrogen)+5 μg/mL insulin (manufactured by Wako)+1% penicillin/streptomycin(manufactured by Sigma)+10 mmol/L HEPES(manufactured by Sigma)+50 μmol/L hydrocortisone(manufactured by Sigma)+10% FBS
A mixture of each test compound with dimethyl sulfoxide (DMSO) was added to the medium to obtain a final concentration of DMSO of 1% (v/v), and thus, test solutions containing the test compound in various concentrations were prepared. In addition, a test solution obtained by adding DMSO alone to the medium to obtain a final concentration of 1% (v/v) was prepared as a control without drug.
(1) The HepG2.2.15 cells were suspended in the medium and prepared a cell suspension at 1.5×10^5 cells/mL. The suspension was seeded in a 96-well microtiter plate (100 μL/well) and the plate was incubated in a 5% CO2 incubator at 37° C. for 1 day.
(2) After removing the culture supernatant, the cells were washed twice with PBS(−) (100 μL/well) and then once with the medium (100 μL/well).
(3) Each test solution was added to the plate (100 μL/well), and the plate was incubated in a 5% CO2 incubator at 37° C. for 3 days.
(4) After removing the culture supernatant, the test solution was added to the plate again (100 μL/well) and the plate was incubated in a 5% CO2 incubator at 37° C. for 3 days.
(5) The culture supernatant was collected and treated with a mixture of Buffer AL (manufactured by QIAGEN) and Proteinase K (manufactured by Invitrogen). The amount of HBV DNA in the solution was quantified by real-time PCR. In addition, the amount of HBsAg (hepatitis B surface antigen) in the culture supernatant was quantified by chemiluminescent enzyme immunoassay using a Lumipulse HBsAg-HQ (manufactured by Fujirebio Inc.). The relative viral load (%) of a well with the compound to a well without the compound was calculated. An IC50 of each compound was calculated using the FORECAST function (linear regression method) of Microsoft Excel 2007 by plotting the logarithm of the concentration against the relative viral load as a real number.

HBV [2] = assay: Anti-HBV assay in PXB-cells (fresh human hepatocytes from PXB mouse infected with HBV genotype AeUS); assay type: cell-based, hepatitis B virus (HBV); conditions: 10 μmol/L
Experimental: The anti-HBV activity of compound 8 was evaluated as follows by using fresh human hepatocyte (The PXB-cells were produced by PhenixBio Co., Ltd.) derived from a PXB mouse (a chimeric mouse with human hepatocyte).
The following was used as a medium:
500 mL DMEM (manufactured by Sigma)+0.25 μg/mL insulin (manufactured by Wako)+1% penicillin/streptomycin. (manufactured by Sigma)+20 mmol/L HEPES (manufactured by Sigma)+15 μg/mL L-proline (manufactured by Sigma)+50 nmol/L dexamethasone (manufactured by Sigma)+5 ng/mL EGF (manufactured by Peprotech)+0.1 mmol/L ascorbic acid 2-phosphate (manufactured by Wako)+10% FBS+2% DMSO
Compound 8 was further added to the medium to prepare a 10 μmol/L test solution.
(1) The PXB-cells seeded at a 2.1×10^5 cells/cm^2 in a 48-well microliter plate were incubated in a 5% CO2 incubator at 37° C. for 5 days.
(2) HBV derived from PXB mouse serum (genotype AeUS) was added to the medium supplemented with 4% PEG-8000. The PXB cells were infected with this solution at about 10 copies/cell (250 μL/well) and the plate was incubated in a 5% CO2 incubator at 37° C. for 1 day.
(3) After the culture supernatant had been removed, the cells were washed three times with DMEM supplemented with 10% FBS and 1% penicillin/streptomycin. The medium was added to the plate (250 μL/well) and the plate was incubated in a 5% CO2 incubator at 37° C. for 1 day.
(4) After removing the culture supernatant, the cells were washed three times with DMEM supplemented with 10% FBS and 1% penicillin/streptomycin. […]
(11) The collected culture supernatant on day 32 post infection was purified using a QIAamp DNA Blood Mini Kit (manufactured by QIAGEN) and the amount of HVB DNA was quantified by real-time PCR. In addition, the amount of HBsAg (hepatitis B surface antigen) in the culture supernatant was quantified by chemiluminescent enzyme immunoassay using a Lumipulse HBsAg-HQ (manufactured by Fujirebio Inc.). The relative viral load (%) of a well with the compound to a well without the compound was calculated.

[3] = HBV DNA in culture supernatant, real-time PCR, read-out: IC50 (μM) HBV-DNA
[4] = HBsAg in culture supernatant, chemiluminescent enzyme immunoassay, read-out: IC50 (μM) HBsAg
[5] = culture supernatant on day 32 post infection, relative to well without compound

## O=C(O)c1cn(-c2ccc(F)cc2F)c(-c2ccc(N3CCCC3)cc2)cc1=O [Compound 4]
HBV [1]; [3]
  IC50: 0.088 µM
HBV [1]; [4]
  IC50: 2.1 µM

## Cc1cc(-n2cc(C(=O)O)c(=O)cc2-c2ccc(N(C)C)cc2)ccc1O [Compound 11]
HBV [1]; [3]
  IC50: 0.8 µM
HBV [1]; [4]
  IC50: 3.7 µM

## COc1ccc(-n2cc(C(=O)O)c(=O)cc2-c2ccc(N(C)C)cc2)cc1 [Compound 5]
HBV [1]; [3]
  IC50: 0.33 µM
HBV [1]; [4]
  IC50: 4.6 µM

## CN(C)c1ccc(-c2cc(=O)c(C(=O)O)cn2-c2ccccc2O)cc1 [Compound 10]
HBV [1]; [3]
  IC50: 2.1 µM
HBV [1]; [4]
  IC50: 6.9 µM

## O=C(O)c1cn(-c2ccc(F)cc2)c(-c2sccc2-c2ccc([N+](=O)[O-])cc2)cc1=O [Compound 2]
HBV [1]; [3]
  IC50: 0.16 µM
HBV [1]; [4]
  IC50: 0.79 µM

## CN(C)c1ccc(-c2cc(=O)c(C(=O)O)cn2-c2cc(Cl)c(O)c(Cl)c2)cc1 [Compound 15]
HBV [1]; [3]
  IC50: 4.5 µM
HBV [1]; [4]
  IC50: 11 µM

## O=C(O)c1cn(-c2ccc(F)cc2)c(-c2ccc(-c3cccs3)cc2)cc1=O [Compound 14]
HBV [1]; [3]
  IC50: 0.91 µM
HBV [1]; [4]
  IC50: 4.2 µM

## O=C(O)c1cn(-c2ccc(F)cc2)c(-c2ccc(N3CCCC3)cc2)cc1=O [Compound 1]
HBV [1]; [3]
  IC50: 0.051 µM
HBV [1]; [4]
  IC50: 1.1 µM

## Cc1cc(O)ccc1-n1cc(C(=O)O)c(=O)cc1C1CCC(Br)C(Br)C1 (centres unmarked) [Compound 13]
HBV [1]; [3]
  IC50: 0.49 µM
HBV [1]; [4]
  IC50: 1.8 µM

## CN(C)c1ccc(-c2cc(=O)c(C(=O)O)cn2-c2ccccc2F)cc1 [Compound 7]
HBV [1]; [3]
  IC50: 1.1 µM
HBV [1]; [4]
  IC50: 4.6 µM

## O=C(O)c1cn(-c2ccc(F)cc2)c(-c2cc3ccccc3s2)cc1=O [Compound 6]
HBV [1]; [3]
  IC50: 1.1 µM
HBV [1]; [4]
  IC50: 5.8 µM

## CN(C)c1ccc(-c2cc(=O)c(C(=O)O)cn2-c2cccc(F)c2)cc1 [Compound 3]
HBV [1]; [3]
  IC50: 0.86 µM
HBV [1]; [4]
  IC50: 5.7 µM

## CN(C)c1ccc(-c2cc(=O)c(C(=O)O)cn2-c2ccc3c(c2)OCO3)cc1 [Compound 8]
HBV [2]; [5]
  relative viral load with respect to the amount of HBV DNA: 16%
  relative viral load with respect to the amount of HBsAg: 29%
HBV [2]; statement in words
  anti-HBV activity: excellent anti-HBV activity
HBV [1]; [3]
  IC50: 0.25 µM
HBV [1]; [4]
  IC50: 1.2 µM

## CNc1ccc(-c2cc(=O)c(C(=O)O)cn2-c2ccc(F)cc2)cc1 [Compound 16]
HBV [1]; [3]
  IC50: 7.9 µM
HBV [1]; [4]
  IC50: 35 µM

## COc1ccc(-n2cc(C(=O)O)c(=O)cc2-c2ccc(N(C)C)cc2)c(F)c1 [Compound 12]
HBV [1]; [3]
  IC50: 1.4 µM
HBV [1]; [4]
  IC50: 4.9 µM

## O=C(O)c1cn(-c2ccc(F)cc2F)c(-c2cc3ccccc3s2)cc1=O [Compound 9]
HBV [1]; [3]
  IC50: 0.23 µM
HBV [1]; [4]
  IC50: 3.6 µM
